From patent publication US8178506B2, “Oligomeric compounds and compositions for use in modulation of small non-coding RNAs” (Regulus Therapeutics Inc., priority 2003, dated 2012)
In the oligonucleotide strings, read from the 5' end, every base follows the letter of its sugar. An asterisk marks phosphorothioate; unmarked linkages are phosphodiester. Other units and linkages are bracketed, terminal groups are in braces. A string of capitals states the bases alone. e = 2'-O-(2-methoxyethyl) (MOE); [5mC] = 5-methylcytosine

Key:
[1] = tested on: mir-143 miRNA binding site; test: GFP mir-143 sensor reporter in T-REx-HeLa cells; format: cell-based, human; conditions: for Mean fluorescence: T-REx-HeLa cells, 24 hours post-transfection
Text: Reporter systems have been developed herein to assess the ability of miRNA mimics to provoke a gene silencing response and to assess whether antisense oligomeric compounds targeting miRNAs can inhibit gene silencing activity. The T-REx™-HeLa cell line (Invitrogen Corp., Carlsbad, Calif.) was used for either stable or transient transfections with plasmids constitutively expressing miRNAs, pre-miRNAs, pri-miRNAs or mimics thereof, and, in some cases, antisense oligomeric compounds targeting the expressed miRNA were also transfected into the cells. It is understood that other mammalian cells lines can also be used in this reporter system. T-REx™-HeLa cells were routinely cultured in DMEM, high glucose (Invitrogen Corporation, Carlsbad, Calif.), supplemented with 10% fetal bovine serum (Invitrogen Corporation). […] Cells were harvested when they reached 90% confluence, and on the day before transfection with expression or reporter plasmids (described in detail below), the T-REx™-HeLa cells were seeded onto 24-well plates at 50,000 cells/well. The following day, cells were transfected according to standard published procedures with various combinations of plasmids using 2 μg Lipofectamine™ 2000 Reagent (Invitrogen) per μg of plasmid DNA. When transfecting oligomeric compounds, 1-3 μg of Lipofectamine™ 2000 Reagent was used per 100 nM oligomeric compound.
Plasmids used are as follows: The pcDNA3.1©/NT-GFP (Invitrogen) plasmid, containing a CMV promoter controlling expression of a GFP reporter sequence at the N-terminus of the transcription start site was used as a control plasmid. The pcDNA3.1©/NT-GFP-mir-143 sensor plasmid contains (in addition to the elements above) three 22-nucleotide sites encoding the mir-143 miRNA binding site, downstream of the GFP coding sequence and upstream of the polyadenylation signal. The pCR3-pri-mir-143 plasmid (“pri-mir-143”) is a CMV promoter-driven constitutive expression plasmid which expresses the 110-nucleotide mir-143 pri-miRNA sequence (SEQ ID NO: 38), to act as a mir-143 pri-miRNA mimic. The pCR3-pri-mir control (“pri-mir-control”) is a CMV promotor-driven constitutive expression plasmid which is designed to express a similar 110-nucleotide pri-miRNA sequence ([…] CAGC; SEQ ID NO: 862) wherein the mature mir-143 sequence has been replaced with an unrelated sequence and the predicted complementary strand opposite it within the pri-miRNA structure is replaced with a nearly complementary sequence in order to preserve the stem loop as well as the bulge structure of the natural mir-143 pri-miRNA. Additionally, in order to test the effect of an oligomeric compound targeting a miRNA, the T-REx™-HeLa cells were also transfected with the uniform 2′-MOE phosphorothioate (PS) antisense oligomeric compound ISIS Number 327901 (SEQ ID NO: 319), targeted to mir-143 previously described.
Twenty-four hours post-transfection, cells were trypsinized and GFP fluorescence was analyzed by flow cytometry.

[2] = tested on: mir-143 binding sites; test: pGL3-mir-143 sensor luciferase assay in HeLa cells; format: cell-based, human; conditions: HeLa cells, pGL3-mir-143 sensor with pCR3-pri-mir-143 (430)
Text: In one embodiment, an expression system based on the pGL3-Control (Promega Corp., Madison Wis.) vector containing a CMV promoter controlling expression of a luciferase reporter sequence was used in transient transfections of HeLa cells with plasmids expressing miRNA or pri-miRNA mimics. To assess the ability of miRNA mimics to bind and regulate the expression of the luciferase reporter gene, two reporter plasmids were constructed: 1) a synthetic DNA fragment comprising two sites perfectly complementary to mir-143 were inserted into the pGL3-Control luciferase reporter vector, to create the pGL3-mir-143 sensor plasmid, and 2) a DNA fragment comprising the 3′-UTR of the LIM domain only 4 (LMO4) gene (predicted to be regulated by mir-143) was inserted into pGL3-Control to create pGL3-LMO4; this fragment was PCR-amplified using a primer beginning at position 1261 of the LMO4 sequence (GenBank Accession NM_006769.2, incorporated herein as SEQ ID: 809) and the downstream primer hybridizing to the poly-A tail. In each of these plasmids, the target site was placed downstream of the luciferase coding sequence and upstream of the polyadenylation signal in the 3′-UTR of the luciferase reporter vector. The unmodified pGL3-Control luciferase reporter vector was used as a control.
HeLa cells were routinely cultured and passaged as described, and on the day before transfection with expression or reporter plasmids, the HeLa cells were seeded onto 24-well plates 50,000 cells/well. Cells were transfected according to standard published procedures with various combinations of plasmids using 2 μg Lipofectamine™ 2000 Reagent (Invitrogen) per μg of plasmid DNA, or, when transfecting oligomeric compounds, 1.25 μg of Lipofectamine™ 2000 Reagent per 100 nM oligonucleotide or double-stranded RNA. The luciferase signal in each well was normalized to the Renilla luciferase (RL) activity produced from a co-transfected plasmid, pRL-CMV, which was transfected at 0.5 μg per well. Cells were treated at various dosages (4 nM, 20 nM, and 100 nM) with the following oligomeric compound mimics: 1) “ds-mir-143,” 2) “ds-Control,” 3) “pCR3-pri-mir-143,” or 4) “pri-mir-control,” as described supra. In accordance with methods described in Example 12, supra, a luciferase assay was performed 48-hours after transfection. Briefly, cells were lysed in passive lysis buffer (PLB; Promega), and 20 ul of the lysate was then assayed for RL activity using a Dual Luciferase Assay kit (Promega) according to the manufacturer's protocol. The results below are an average of three trials and are presented as percent pGL3-Control luciferase expression normalized to pRL-CMV expression (RL).
In another embodiment, HeLa cells were transfected with 0.03 μg pGL3-mir-143 sensor plasmid and 0.01 μg pRL-CMV plasmid, and, in addition, (except those samples described below as “without mir-143 pri-miRNA,”) were also transfected with 0.01 μg of an expression plasmid designed to express a mir-143 pri-miRNA mimic comprising a larger 430-nt fragment of the mir-143 primary miRNA transcript, referred to as “pCR3-pri-mir-143 (430)” ([…]; SEQ ID NO: 871). […] To further evaluate the ability of the mir-143 pri-miRNA mimic to inhibit luciferase activity from the sensor plasmid, and to assess the ability of oligomeric compounds to interfere with the inhibition of pGL3-mir-143 sensor luciferase expression by the mir-143 pri-miRNA mimic, pGL3-mir-143 sensor-expressing HeLa cells treated with pCR3-pri-mir-143 (430) were additionally treated with varying concentrations (0-, 6.7- or 20 nM) of the following oligomeric compounds: 1) ISIS Number 327901 (SEQ ID NO: 319), a uniform 2′-MOE oligomeric compound targeting mir-143; 2) ISIS Number 342673 (SEQ ID NO: 758), a uniform 2′-MOE scrambled control; or 3) ISIS Number 327924 (SEQ ID NO: 342) targeting an unrelated miRNA (mir-129-2). […]

Substance: 327901 (antisense eT*eG*eA*eG*e[5mC]*eT*eA*e[5mC]*eA*eG*eT*eG*e[5mC]*eT*eT*e[5mC]*eA*eT*e[5mC]*eT*e[5mC]*eA) [compound 327901]
- Mean fluorescence ([1]; oligo with GFP mir-143 sensor only): 4.2 arbitrary units
- Mean fluorescence ([1]; oligo with pri-mir-143, no GFP plasmid): 3.7 arbitrary units
- Mean fluorescence ([1]; oligo with pri-mir-143 and GFP mir-143 sensor): 4.1 arbitrary units
- Relative luciferase activity ([2]; 6.7 nM): 4.0
- Relative luciferase activity ([2]; 20 nM): 6.4

Substance: 342673 (antisense eA*eG*eA*e[5mC]*eT*eA*eG*e[5mC]*eG*eG*eT*eA*eT*e[5mC]*eT*eT*eT*eA*eT*e[5mC]*e[5mC]*e[5mC]) [compound 342673]
- Relative luciferase activity ([2]; 6.7 nM): 1.3
- Relative luciferase activity ([2]; 20 nM): 1.5

Substance: TGAGCTACAGTGCTTCATCTCA [ISIS 327901] (chemistry not given here) [uniform 2′-MOE PS; targets mir-143]
- recovery of GFP fluorescence ([1]; with 20 nM mir-143 dsRNA, 4-, 20- or 100 nM): blocked the inhibitory effect of the mir-143 dsRNA oligomeric compound
